Measured values taken from ChEMBL document CHEMBL5029147 (J Med Chem, 2021).
Calls of active or inactive are those of the source. The rule behind the calls is not given here.

How the values were obtained:
[1] = Drug metabolism in human MCF7 cells assessed as decline in intracellular hydroxy-PTX metabolite level at 1 uM measured after 24 hrs in presence of 50 to 100 uM photoCORM delivered CO by LC-MS/MS-MRM analysis; format: ADME, cell-based; conditions: mcf7, 24 h
[2] = tested on: MDA-MB-231; assay: Cytotoxicity against human MDA-MB-231 cells assessed as reduction in cell viability incubated for 24 hrs in presence of chloramphenicol by MTT assay; format: functional, cell-based
[3] = Drug metabolism in human MCF7 cells assessed as intracellular hydroxy-PTX metabolite formation at 0.2 to 1 uM measured after 24 hrs by HPLC-MS/MS-MRM analysis; format: ADME, cell-based; conditions: mcf7, 24 h, dose 0.2-1 µM
[4] = Drug uptake in human MCF7 cells at 1 uM measured after 24 hrs in presence of 50 to 100 uM photoCORM delivered CO by LC-MS/MS-MRM analysis; format: ADME, cell-based; conditions: mcf7, 24 h
[5] = Drug metabolism in human MDA-MB-231 cells assessed as intracellular hydroxy-PTX metabolite formation measured after 24 hrs by LC-MS/MS-MRM analysis; format: ADME, cell-based; conditions: mda-mb-231, 24 h
[6] = tested on: MCF7; assay: Effect on BCRP expression in human MCF7 cells at 0.5 to 1 uM incubated for 24 hrs by western blot analysis; format: functional, cell-based; conditions: dose 0.5-1 µM
[7] = Drug uptake in human MCF7 cells at 1 uM measured after 24 hrs in presence of 20 uM chloramphenicol by LC-MS/MS-MRM analysis; format: ADME, cell-based; conditions: mcf7, 24 h
[8] = Drug uptake in human MCF7 cells at 0.2 to 1 uM measured after 24 hrs by HPLC-MS/MS-MRM analysis; format: ADME, cell-based; conditions: mcf7, 24 h, dose 0.2-1 µM
[9] = Drug uptake in human MCF7 cells at 1 uM measured after 24 hrs in presence of 100 uM photoCORM delivered CO by LC-MS/MS-MRM analysis; format: ADME, cell-based; conditions: mcf7, 24 h
[10] = tested on: HepG2; assay: Cytotoxicity against human HepG2 cells assessed as reduction in cell viability incubated for 24 hrs in presence of chloramphenicol by MTT assay; format: functional, cell-based
[11] = tested on: MDA-MB-231; assay: Cytotoxicity against human MDA-MB-231 cells assessed as reduction in cell viability at < 0.5 uM incubated for 24 hrs in presence of 20 uM chloramphenicol by MTT assay; format: functional, cell-based; conditions: dose microM <0.5, time 24.0 hrs
[12] = Drug metabolism in human MCF7 cells assessed as intracellular hydroxy-PTX metabolite formation at 1 uM measured after 24 hrs by LC-MS/MS-MRM analysis; format: ADME, cell-based; conditions: mcf7, 24 h
[13] = tested on: MCF7; assay: Effect on CYP2C8 expression in human MCF7 cells at 0.5 to 1 uM incubated for 24 hrs by western blot analysis; format: functional, cell-based; conditions: dose 0.5-1 µM
[14] = Drug uptake in human HepG2 cells at 1 to 2 uM measured after 24 hrs in presence of photoCORM delivered CO by LC-MS/MS-MRM analysis; format: ADME, cell-based; conditions: hepg2, 24 h, dose 1-2 µM

CC(=O)O[C@H]1C(=O)[C@@]2(C)[C@H]([C@H](OC(=O)c3ccccc3)[C@]3(O)C[C@H](OC(=O)[C@H](O)[C@@H](NC(=O)c4ccccc4)c4ccccc4)C(C)=C1C3(C)C)[C@]1(OC(C)=O)CO[C@@H]1C[C@@H]2O [PACLITAXEL]
Drug metabolism [1]: Metabolite_Notdetected
Activity [2]: Active
Drug metabolism [3]: Metabolite_Detected
Drug uptake [4]: Not Active
Drug metabolism [5]: Metabolite_Notdetected
Activity [6]: inactive
Drug uptake [7]: Not Active
Drug uptake [8]: Active
Drug uptake [9]: Not Active
Activity [10]: Active
Activity [11]: Active
Drug metabolism [12]: 1 fmol/µg
Activity [13]: inactive
Drug uptake [14]: Active
